This assay addresses 5-HT5A (Homo sapiens, UniProt P47898). Briefly: Affinity of selected compounds for 5-HT5A (Ki). The assay is classed as binding. As for the experimental part:
In both assays, different concentrations of the test substances are used and the Ki and IC50 values are determined.

Drawing on patent US8686002B2, “Heterocyclic compounds and their use as binding partners for 5-HT5 receptors” (AbbVie Deutschland GmbH & Co. KG, priority 2005, dated 2014), this text covers Ki for 56 molecules.

pKi: −log10 of the molar value. Counter-ions that a name gives are not always drawn.

Sequence of 5-HT5A (P47898 whole entry): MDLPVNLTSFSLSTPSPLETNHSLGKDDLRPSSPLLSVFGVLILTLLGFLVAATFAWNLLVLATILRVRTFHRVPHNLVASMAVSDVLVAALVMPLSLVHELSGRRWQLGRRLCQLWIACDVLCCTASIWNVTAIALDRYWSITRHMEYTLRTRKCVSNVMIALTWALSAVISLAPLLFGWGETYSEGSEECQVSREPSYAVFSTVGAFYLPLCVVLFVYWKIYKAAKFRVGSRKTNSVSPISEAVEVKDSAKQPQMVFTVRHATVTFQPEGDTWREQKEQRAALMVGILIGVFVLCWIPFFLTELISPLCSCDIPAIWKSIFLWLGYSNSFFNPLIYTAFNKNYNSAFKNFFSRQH

With “3-(2-Methoxybenzyl)-N-(1-naphthylmethyl)-3,4-dihydroquinazolin-2-amine hydrochloride [Example 99]”, the negative logarithm of the Ki (pKi) (as a rule, the negative decadic logarithm of the Ki, by convention in mol/L) is > 5.00.

Take `COc1ccccc1Cc1cc2ccccc2nc1N` [Example 1, 3-(2-Methoxybenzyl)quinolin-2-amine]: the pKi was > 6.52.

Turning to `COc1cccc(O)c1Cc1cc2ccccc2nc1N` [Example 2, 2-[(2-Aminoquinolin-3-yl)methyl]-3-methoxyphenol], the negative-log Ki (pKi) was > 6.52.

As for `COc1cccc(OC)c1Cc1cc2ccccc2nc1N` [Example 3, 3-(2,6-Dimethoxybenzyl)quinolin-2-amine], the negative logarithm of the Ki (pKi) is > 6.52.

`CCOc1cccc(OC)c1Cc1cc2ccccc2nc1N` [Example 4, 3-(2-Ethoxy-6-methoxybenzyl)quinolin-2-amine]: the pKi was > 6.52.

`COc1cccc(OC(C)C)c1Cc1cc2ccccc2nc1N` [Example 5, 3-(2-Isopropoxy-6-methoxybenzyl)quinolin-2-amine]: the pKi is > 6.52.

As for `COc1ccc2cc(Cc3ccccc3OC)c(N)nc2c1` [Example 6, 7-Methoxy-3-(2-methoxybenzyl)quinolin-2-amine], the pKi is > 6.52.

Consider `COc1ccc2nc(N)c(Cc3ccccc3OC)cc2c1` [Example 7, 6-Methoxy-3-(2-methoxybenzyl)quinolin-2-amine], for which the pKi is > 6.52.

Consider `COc1cccc(OC)c1Cc1cc2cc(Cl)ccc2nc1N` [Example 9, 6-Chloro-3-(2,6-dimethoxybenzyl)quinolin-2-amine], for which the pKi is > 6.52.

Take `COc1ccccc1Cc1cc2cc(Cl)ccc2nc1N` [Example 11]: the pKi is > 6.52.

For `COc1cccc(OC)c1Cc1cc2cc3c(cc2nc1N)OCO3` [Example 12], the pKi is > 6.52.

In the case of `COc1cc2cc(Cc3c(OC)cccc3OC)c(N)nc2cc1OC` [Example 13, 3-(2,6-Dimethoxybenzyl)-6,7-dimethoxy-quinolin-2-amine], the pKi is > 6.52.

`COc1ccccc1Cc1cc2cc3c(cc2nc1N)OCO3` [Example 14, 7-(2-Methoxybenzyl)[1.3]dioxolo[4.5-g]quinolin-6-amine]: the pKi is > 6.52.

With `COc1ccccc1Cc1cc2ccc(Cl)cc2nc1N` [Example 15, 7-Chloro-3-(2-methoxybenzyl)quinolin-2-amine], the negative-log Ki (pKi) was > 6.52.

With `COc1ccccc1Cc1cc2cc(OC)c(OC)cc2nc1N` [Example 16, 6,7-Dimethoxy-3-(2-methoxybenzyl)quinolin-2-amine], the pKi was > 6.52.

Consider `COc1cccc(F)c1Cc1cc2cc3c(cc2nc1N)OCO3` [Example 17, 7-(2-Fluoro-6-methoxybenzyl)[1.3]dioxolo[4.5-g]quinolin-6-amine], for which the pKi is > 6.52.

On to `COc1ccccc1Cc1cc2cc(F)ccc2nc1N` [Example 18, 6-Fluoro-3-(2-methoxybenzyl)quinolin-2-amine], for which the negative-log Ki (pKi) is > 6.52.

In the case of `COc1ccccc1Cc1cc2c(Cl)cccc2nc1N` [Example 19, 5-Chloro-3-(2-methoxybenzyl)quinolin-2-amine], the pKi is > 6.52.

Consider `COc1cccc(OC)c1Cc1cc2cccnc2nc1N` [Example 21, 3-(2,6-Dimethoxybenzyl)-1,8-naphthyridin-2-amine], for which the pKi was > 5.00.

For `COc1cccc(OC)c1Cc1cc2cnccc2nc1N` [Example 22, 3-(2,6-Dimethoxybenzyl)-1,6-naphthyridin-2-amine], the pKi is > 6.52.

On to `COc1cccc(OC)c1Cc1cc2cc(F)ccc2nc1N` [Example 23, 3-(2,6-Dimethoxybenzyl)-6-fluoroquinolin-2-amine], for which the pKi is > 6.52.

Turning to `COc1cccc(F)c1Cc1cc2cc(F)ccc2nc1N` [Example 24, 6-Fluoro-3-(2-fluoro-6-methoxybenzyl)quinolin-2-amine], the negative-log Ki (pKi) was > 6.52.

In the case of `Nc1nc2ccccc2cc1Cc1ccccc1O` [Example 25, 2-[(2-Aminoquinolin-3-yl)methyl]phenol], the negative-log Ki (pKi) was > 6.52.

Regarding `COc1cccc(F)c1Cc1cc2ccc(Cl)cc2nc1N` [Example 26, 7-Chloro-3-(2-fluoro-6-methoxybenzyl)quinolin-2-amine], the pKi was > 6.52.

In the case of `COc1cccc(Cl)c1Cc1cc2ccc(Cl)cc2nc1N` [Example 27, 7-Chloro-3-(2-chloro-6-methoxybenzyl)quinolin-2-amine], the pKi is > 6.52.

Turning to `COc1ccccc1Cc1cc2ccc(N(C)C)cc2nc1N` [Example 28, 3-(2-Methoxybenzyl)-N^7,N^7-dimethylquinolin-2,7-diamine], the pKi is > 6.52.

Consider `COc1cccc(F)c1Cc1cc2ccccc2nc1N` [Example 29, 3-(2-Fluoro-6-methoxybenzyl)quinolin-2-amine], for which the negative logarithm of the Ki (pKi) is > 6.52.

With `COc1cccc(Cl)c1Cc1cc2ccccc2nc1N` [Example 30, 3-(2-Chloro-6-methoxybenzyl)quinolin-2-amine], the pKi is > 6.52.

Consider `CCOc1ccc2nc(N)c(Cc3ccccc3OC)cc2c1` [Example 31, 6-Ethoxy-3-(2-methoxybenzyl)quinolin-2-amine], for which the pKi is > 6.52.

Take `CCOc1ccc2nc(N)c(Cc3c(OC)cccc3OC)cc2c1` [Example 32, 6-Ethoxy-3-(2,6-dimethoxybenzyl)quinolin-2-amine]: the pKi was > 6.52.

Regarding `COc1ccccc1Cc1cc2cnccc2nc1N` [Example 33, 3-(2-Methoxybenzyl)-1,6-naphthyridin-2-amine], the pKi is > 6.52.

In the case of `COc1ccccc1Cc1cc2cccnc2nc1N` [Example 34, 3-(2-Methoxybenzyl)-1,8-naphthyridin-2-amine], the negative logarithm of the Ki (pKi) is > 5.00.

As for `COc1cccc(F)c1Cc1cc2cnccc2nc1N` [Example 35, 3-(2-Fluoro-6-methoxybenzyl)-1,6-naphthyridin-2-amine], the negative-log Ki (pKi) was > 6.52.

Regarding `COc1ccccc1Cc1cc2ccncc2nc1N` [Example 36, 3-(2-Methoxybenzyl)-1,7-naphthyridin-2-amine], the pKi is > 6.52.

For the molecule `COc1cccc(OC)c1Cc1cc2ccncc2nc1N` [Example 37, 3-(2,6-Dimethoxybenzyl)-1,7-naphthyridin-2-amine], the negative logarithm of the Ki (pKi) is > 6.52.

On to `COc1ccccc1Cc1cc2ncccc2nc1N` [Example 38, 3-(2-Methoxybenzyl)-1,5-naphthyridin-2-amine], for which the negative logarithm of the Ki (pKi) was > 6.52.

Regarding `COc1ccccc1Cc1cc2ccc(F)cc2nc1N` [Example 39, 7-Fluoro-3-(2-methoxybenzyl)quinolin-2-amine], the negative logarithm of the Ki (pKi) is > 6.52.

Regarding `COc1cccc(Cl)c1Cc1cc2cc3c(cc2nc1N)OCO3` [Example 40, 7-(2-Chloro-6-methoxybenzyl)[1.3]dioxolo[4,5-g]quinolin-76-amine], the pKi was > 6.52.

As for `COc1ccccc1Cc1cc2cc(F)c(F)cc2nc1N` [Example 41, 6,7-Difluoro-3-(2-methoxybenzyl)quinolin-2-amine], the pKi was > 6.52.

In the case of `COc1cccc(F)c1Cc1cc2ccc(F)cc2nc1N` [Example 42, 7-Fluoro-3-(2-fluoro-6-methoxybenzyl)quinolin-2-amine], the negative-log Ki (pKi) was > 6.52.

`COCCOc1ccc2nc(N)c(Cc3ccccc3OC)cc2c1` [Example 43, 3-(2-Methoxybenzyl)-6-(2-methoxyethoxy)quinolin-2-amine]: the pKi is > 6.52.

Take `COc1ccccc1Cc1cc2cc(N3CCOCC3)ccc2nc1N` [Example 44, 3-(2-Methoxybenzyl)-6-morpholin-4-ylquinolin-2-amine]: the negative logarithm of the Ki (pKi) was > 6.52.

For the molecule `COc1cccc(F)c1Cc1cc2cc(N3CCOCC3)ccc2nc1N` [Example 45, 3-(2-Methoxy-6-fluorobenzyl)-6-morpholin-4-ylquinolin-2-amine], the negative-log Ki (pKi) was > 6.52.

Turning to `COc1cccc(OC)c1Cc1cc2ncccc2nc1N` [Example 46, 3-(2,6-Dimethoxybenzyl)-1,5-naphthyridin-2-amine], the pKi was > 6.52.

In the case of `COc1cccc(F)c1Cc1cc2ncccc2nc1N` [Example 47, 3-(2-Fluoro-6-methoxybenzyl)-1,5-naphthyridin-2-amine], the pKi is > 6.52.

Consider `COc1ccccc1Cc1cc2cc(N3CCN(C)CC3)ccc2nc1N` [Example 48, 3-(2-Methoxybenzyl)-6-(4-methylpiperazin-1-yl)quinolin-2-amine bisfumarate], for which the pKi was > 6.52.

Take `COc1cccc(F)c1Cc1cc2cc(N3CCN(C)CC3)ccc2nc1N` [Example 49, 3-(2-Fluoro-6-methoxybenzyl)-6-(4-methylpiperazin-1-yl)quinolin-2-aminomonofumarate]: the negative-log Ki (pKi) is > 6.52.

Regarding `COc1ccccc1Cc1cc2cc(N3CCOCC3)c(F)cc2nc1N` [Example 50, 7-Fluoro-3-(2-methoxybenzyl)-6-morpholin-4-ylquinolin-2-amine], the pKi was > 6.52.

As for `COc1ccccc1Cc1cc2cccc(OC)c2nc1N` [Example 51, 8-Methoxy-3-(2-methoxybenzyl)quinolin-2-amine], the pKi is > 6.52.

As to `COc1cccc(OC)c1Cc1cc2cccc(OC)c2nc1N` [Example 52, 3-(2,6-Dimethoxybenzyl)-8-methoxyquinolin-2-amine hydrochloride], the pKi is > 6.52.

For `Nc1nc2ccccc2cc1Cc1ccccc1OC(F)(F)F` [Example 53, 3-[2-(Trifluoromethoxy)benzyl]quinolin-2-amine], the negative-log Ki (pKi) is > 6.52.

Turning to `CC(C)Oc1ccccc1Cc1cc2ccccc2nc1N` [Example 54, 3-(2-Isopropoxybenzyl)quinolin-2-amine hydrochloride], the pKi was > 6.52.

Regarding `CCOc1ccccc1Cc1cc2ccccc2nc1N` [Example 55, 3-(2-Ethoxybenzyl)quinolin-2-amine hydrochloride], the negative-log Ki (pKi) is > 6.52.

In the case of `CC(C)Oc1cccc(F)c1Cc1cc2ccccc2nc1N` [Example 56, 3-(2-Fluoro-6-isopropoxybenzyl)quinolin-2-amine hydrochloride], the negative logarithm of the Ki (pKi) was > 6.52.

For the molecule `COc1cccc(Cl)c1Cc1cc2ncccc2nc1N` [Example 58, 3-(2-Chloro-6-methoxybenzyl)-1,5-naphthyridin-2-amine], the negative logarithm of the Ki (pKi) was > 6.52.

In the case of `CCOc1cccc(F)c1Cc1cc2ccccc2nc1N` [Example 59, 3-(2-Ethoxy-6-fluorobenzyl)quinolin-2-amine hydrochloride], the negative logarithm of the Ki (pKi) is > 6.52.
